What is called IC50 is the concentration that gives 50% inhibition.

For the experiment, the target named is T1, human cardiac ion channel proteins hKir3.1/Kir3.4 (Homo sapiens, UniProt P48544+P48549).
T1 construct: expressed in transfected cells
T1 sequence (P48549 1-501): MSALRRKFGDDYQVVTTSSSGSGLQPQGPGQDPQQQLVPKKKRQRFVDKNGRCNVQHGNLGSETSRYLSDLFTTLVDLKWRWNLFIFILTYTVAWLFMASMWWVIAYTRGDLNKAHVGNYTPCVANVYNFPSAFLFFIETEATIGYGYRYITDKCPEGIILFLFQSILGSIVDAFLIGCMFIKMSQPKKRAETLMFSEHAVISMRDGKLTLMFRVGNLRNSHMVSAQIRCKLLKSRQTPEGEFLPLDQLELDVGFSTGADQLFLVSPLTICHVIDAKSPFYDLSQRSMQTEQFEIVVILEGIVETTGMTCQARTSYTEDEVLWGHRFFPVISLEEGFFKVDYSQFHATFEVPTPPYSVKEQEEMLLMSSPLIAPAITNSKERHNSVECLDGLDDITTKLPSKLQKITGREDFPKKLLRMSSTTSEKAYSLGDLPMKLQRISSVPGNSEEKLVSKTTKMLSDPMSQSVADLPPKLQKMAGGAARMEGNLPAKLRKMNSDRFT
T1 sequence (P48544 1-419): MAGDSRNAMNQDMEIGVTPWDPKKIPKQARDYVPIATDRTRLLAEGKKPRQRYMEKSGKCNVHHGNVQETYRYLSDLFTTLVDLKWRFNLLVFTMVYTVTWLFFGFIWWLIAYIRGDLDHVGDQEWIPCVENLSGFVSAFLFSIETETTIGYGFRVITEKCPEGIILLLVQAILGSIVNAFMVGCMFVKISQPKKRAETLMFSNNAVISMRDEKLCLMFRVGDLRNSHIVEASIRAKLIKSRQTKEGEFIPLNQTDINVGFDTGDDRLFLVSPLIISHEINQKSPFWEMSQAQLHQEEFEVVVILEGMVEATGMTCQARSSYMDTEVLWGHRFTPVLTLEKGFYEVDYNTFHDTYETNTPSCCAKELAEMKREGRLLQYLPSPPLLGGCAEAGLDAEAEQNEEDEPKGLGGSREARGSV
Description: Atomic Absorption Screening (AAS) Rb efflux assay of hKir3.1/Kir3.4 block, carbachol/high K+ stimulated, 10-pt or 7-pt CR. It counts as cell-based. The conditions noted are these: 10-pt CR (0.003 to 67 μmol/L), AAS Rb efflux, CHO-K1 cells expressing hKir3.1/Kir3.4; mean of >4 replicates; read-out: IKACh IC50 10-pt CR, AAS. The gist of the method: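 CHO-K1 cells stably co-expressing human Kir3.1/Kir3.4 were Rb-loaded for 3 h at 37° C, preincubated with compound 5 min at RT, then stimulated 10 min with 10 μM carbachol plus 20 mM KCl (final). Supernatant Rb was measured by atomic absorption. Compounds ran at 0.003–67 μmol/L (10-pt) or 0.037–27 μmol/L (7-pt), threefold dilutions; IC50s are means of >4 or >3 replicates respectively.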

Take `Cc1cc(C(=O)N(C)[C@H](CN2CC[C@@H](O)C2)C(C)C)ccc1F` [Example 17.3, 4-Fluoro-N—((S)-1-((R)-3-hydroxypyrrolidin-1-yl)-3-methylbutan-2-yl)-N,3-dimethylbenzamide]: the IC50 was determined as 11 µM.

`CC(C)[C@@H](CN1CC[C@@H](O)C1)N(C)C(=O)c1ccc(Cl)cc1` [Example 17.4, 4-Chloro-N—((S)-1-((R)-3-hydroxypyrrolidin-1-yl)-3-methylbutan-2-yl)-N-methylbenzamide]: the IC50 is 17 µM.

As to `CC(C)[C@@H](CN1CC[C@@H](O)C1)N(C)C(=O)c1ccc(Br)cc1` [Example 17.5, 4-Bromo-N—((S)-1-((R)-3-hydroxypyrrolidin-1-yl)-3-methylbutan-2-yl)-N-methylbenzamide], the IC50 stood at 2.7 µM.

Turning to `CC(C)[C@@H](CN1CC[C@@H](O)C1)N(C)C(=O)c1ccc(F)c(Cl)c1` [Example 17.6, 3-Chloro-4-fluoro-N—((S)-1-((R)-3-hydroxypyrrolidin-1-yl)-3-methylbutan-2-yl)-N-methylbenzamide], the IC50 was found to be 12 µM.

With `CC(C)[C@@H](CN1CC[C@@H](O)C1)N(C)C(=O)c1ccc(F)c(C(F)(F)F)c1` [Example 17.7, 4-Fluoro-N—((S)-1-((R)-3-hydroxypyrrolidin-1-yl)-3-methylbutan-2-yl)-N-methyl-3-(trifluoromethyl)benzamide], the IC50 was determined as 3.6 µM.

As to `CC(C)[C@@H](CN1CCCC1)N(C(=O)c1ccc(Cl)cc1)C1CCCC1` [Example 20, (S)-4-Chloro-N-cyclopentyl-N-(3-methyl-1-(pyrrolidin-1-yl)butan-2-yl)benzamide], the IC50 amounted to 11 µM.

Turning to `Cc1ccc(C(=O)N(C)[C@H](CN2CCC(F)(F)C2)C(C)C)cc1C` [Example 21, (S)—N-(1-(3,3-Difluoropyrrolidin-1-yl)-3-methylbutan-2-yl)-N,3,4-trimethylbenzamide], the IC50 was found to be 19 µM.

For `Cc1cc(C(=O)N(C)[C@](C)(CN2CC(O)C2)C(C)C)ccc1F` [Example 22, (S)-4-Fluoro-N-(1-(3-hydroxyazetidin-1-yl)-2,3-dimethylbutan-2-yl)-N,3-dimethylbenzamide], the IC50 was found to be 19 µM.

On to `CCC[C@@H](CN1CC(O)C1)N(C)C(=O)c1ccc(C)c(C)c1` [Example 23, (S)—N-(1-(3-Hydroxyazetidin-1-yl)pentan-2-yl)-N,3,4-trimethylbenzamide], for which the IC50 amounted to 0.44 µM.

For `Cc1cc(C(=O)N(C)[C@H](CN2CCC(O)CC2)C(C)C)ccc1F` [Example 24, (S)-4-Fluoro-N-(1-(4-hydroxypiperidin-1-yl)-3-methylbutan-2-yl)-N,3-dimethylbenzamide], the half-maximal inhibitory concentration (IC50) turned out to be 4 µM.

As to `Cc1cc(C(=O)N(C)[C@@H](CN2CCC(O)CC2)C(C)C)ccc1F` [Example 25, (R)-4-Fluoro-N-(1-(4-hydroxypiperidin-1-yl)-3-methylbutan-2-yl)-N,3-dimethylbenzamide], the IC50 was determined as 17 µM.

For `Cc1cc(C(=O)N(C)[C@H](CN2CCC(C#N)CC2)C(C)C)ccc1F` [Example 26, (S)—N-(1-(4-Cyanopiperidin-1-yl)-3-methylbutan-2-yl)-4-fluoro-N,3-dimethylbenzamide], the 50% inhibitory concentration (IC50) was determined as 7 µM.

With `CC(C)[C@@H](CN1CCC(O)CC1)N(C)C(=O)c1ccc(Cl)cc1` [Example 27, (S)-4-Chloro-N-(1-(4-hydroxypiperidin-1-yl)-3-methylbutan-2-yl)-N-methylbenzamide], the IC50 was 1.1 µM.

Regarding `COCC1CN(C[C@H](C(C)C)N(C)C(=O)c2ccc(F)c(F)c2)C1` [Example 28, (S)-3,4-Difluoro-N-(1-(3-(methoxymethyl)azetidin-1-yl)-3-methylbutan-2-yl)-N-methylbenzamide], the IC50 worked out at 19 µM.

On to `CC[C@H](C)[C@@H](CN1CC(O)C1)N(C)C(=O)c1ccc(Cl)cc1` [Example 29.2, 4-Chloro-N-((2S,3S)-1-(3-hydroxyazetidin-1-yl)-3-methylpentan-2-yl)-N-methylbenzamide], for which the IC50 was 0.16 µM.

`CCc1ccc(C(=O)N(C)[C@H](CN2CC(O)C2)[C@@H](C)CC)cc1` [Example 29.3, 4-Ethyl-N-((2S,3S)-1-(3-hydroxyazetidin-1-yl)-3-methylpentan-2-yl)-N-methylbenzamide]: the IC50 was 0.22 µM.

As for `CC[C@H](C)[C@@H](CN1CC(O)C1)N(C)C(=O)c1ccccc1` [Example 29.4, N-((2S,3S)-1-(3-Hydroxyazetidin-1-yl)-3-methylpentan-2-yl)-N-methylbenzamide], the IC50 is 12 µM.

As to `CC[C@H](C)[C@@H](CN1CC(O)C1)N(C)C(=O)c1ccc(C#N)cc1` [Example 29.5, 4-Cyano-N-((2S,3S)-1-(3-hydroxyazetidin-1-yl)-3-methylpentan-2-yl)-N-methylbenzamide], the IC50 was determined as 12 µM.

`CC[C@H](C)[C@@H](CN1CC(O)C1)N(C)C(=O)c1ccc(OC)cc1` [Example 29.6, N-((2S,3S)-1-(3-Hydroxyazetidin-1-yl)-3-methylpentan-2-yl)-4-methoxy-N-methylbenzamide]: the IC50 was 1.6 µM.

As to `CC[C@H](C)[C@@H](CN1CC(O)C1)N(C)C(=O)c1cc(C)ccc1OC` [Example 29.8, N-((2S,3S)-1-(3-Hydroxyazetidin-1-yl)-3-methylpentan-2-yl)-2-methoxy-N,5-dimethylbenzamide], the IC50 came out at 11 µM.

On to `CC[C@H](C)[C@@H](CN1CC(O)C1)N(C)C(=O)c1cc(Cl)ccc1OC` [Example 29.9, 5-Chloro-N-((2S,3S)-1-(3-hydroxyazetidin-1-yl)-3-methylpentan-2-yl)-2-methoxy-N-methylbenzamide], for which the IC50 worked out at 16 µM.

For the compound `CO[C@H](C)[C@@H](CN1CC(O)C1)N(C)C(=O)c1ccc(Cl)cc1` [Example 30, 4-Chloro-N-((2R,3R)-1-(3-hydroxyazetidin-1-yl)-3-methoxybutan-2-yl)-N-methylbenzamide], the IC50 was 6.3 µM.

As for `CCC[C@@H](CN1CC(OCC)C1)N(C)C(=O)c1ccc(Cl)cc1` [Example 31.1, (S)-4-Chloro-N-(1-(3-ethoxyazetidin-1-yl)pentan-2-yl)-N-methylbenzamide], the IC50 turned out to be 0.43 µM.

In the case of `CCC[C@@H](CN1CC(OC)C1)N(C)C(=O)c1ccc(Cl)cc1` [Example 31.2, (S)-4-Chloro-N-(1-(3-methoxyazetidin-1-yl)pentan-2-yl)-N-methylbenzamide], the IC50 is 5.9 µM.

For `CCC[C@@H](CN1CC(OCC#N)C1)N(C)C(=O)c1ccc(Cl)cc1` [Example 31.3, 4-chloro-N-{(2S)-1-[3-(cyanomethoxy)azetidin-1-yl]pentan-2-yl}-N-methylbenzamide], the concentration for half-maximal inhibition (IC50) stood at 1.7 µM.

On to `CCC[C@@H](CN1CC(OC(C)C)C1)N(C)C(=O)c1ccc(Cl)cc1` [Example 31.4, 4-chloro-N-methyl-N-{(25)-1-[3-(propan-2-yloxy)azetidin-1-yl]pentan-2-yl}benzamide], for which the IC50 amounted to 0.33 µM.

On to `CCCC[C@@H](CN1CC(O)C1)N(C)C(=O)c1ccc(Cl)cc1` [Example 33.1, (S)-4-chloro-N-(1-(3-hydroxyazetidin-1-yl)hexan-2-yl)-N-methylbenzamide], for which the half-inhibitory concentration (IC50) worked out at 0.12 µM.

With `CCCC[C@@H](CN1CC(O)C1)N(C)C(=O)c1ccc(F)c(F)c1` [Example 33.2, 3,4-Difluoro-N-[(2S)-1-(3-hydroxyazetidin-1-yl)hexan-2-yl]-N-methylbenzamide], the IC50 is 0.32 µM.

With `CCCC[C@@H](CN1CC(O)C1)N(C)C(=O)c1ccc(C#N)cc1F` [Example 33.3, 4-Cyano-2-fluoro-N-[(2S)-1-(3-hydroxyazetidin-1-yl)hexan-2-yl]-N-methylbenzamide], the IC50 came to 0.84 µM.

For the compound `CCCC[C@@H](CN1CC(O)C1)N(C)C(=O)c1ccccc1` [Example 33.5, N-[(2S)-1-(3-Hydroxyazetidin-1-yl)hexan-2-yl]-N-methylbenzamide], the 50% inhibitory concentration (IC50) stood at 1 µM.

Regarding `CCCC[C@@H](CN1CC(O)C1)N(C)C(=O)c1ccc(O)cc1` [Example 33.6, 4-Hydroxy-N-[(2S)-1-(3-hydroxyazetidin-1-yl)hexan-2-yl]-N-methylbenzamide], the IC50 was 11 µM.

With `CCCC[C@@H](CN1CC(O)C1)N(C)C(=O)c1ccc(F)c(Cl)c1` [Example 33.8, 3-Chloro-4-fluoro-N-[(2S)-1-(3-hydroxyazetidin-1-yl)hexan-2-yl]-N-methylbenzamide], the IC50 was determined as 0.16 µM.

The record behind these values is patent publication US8361998B2, “Compounds and their use as IKACh blockers” (AstraZeneca AB, priority 2010, dated 2013).
